Values of other authors in patent US20230255882A1, “LONG-LASTING RESORBABLE SUBCUTANEOUS IMPLANT WITH SUSTAINED RELEASE OF PRE-CONCENTRATED PHARMACOLOGICALLY ACTIVE SUBSTANCE IN POLYMER FOR THE TREATMENT OF PARKINSONS DISEASE” (priority 2020, published 2023).

Tested on: Parkinson's disease
Conditions: intramuscular injection, 25 mg twice a week

SMILES: NC(=O)C1=CN([C@@H]2O[C@H](COP(=O)(O)OP(=O)(O)OC[C@H]3O[C@@H](n4cnc5c(N)ncnc54)[C@H](OP(=O)(O)O)[C@@H]3O)[C@@H](O)[C@H]2O)C=CC1 [NADPH]
- motor symptoms: significant improvement in motor symptoms
